We go through 3 compounds from publication PMC6832266, “Natural Sesquiterpene Lactones of the 4,15-iso-Atriplicolide Type are Inhibitors of Trypanothione Reductase” (Molecules, 2019).

Holding throughout (type): biochemical
In test [1] the target is T1, trypanothione reductase (TbTR) (Trypanosoma brucei, UniProt P39051).
T1 construct: gene TPR
The experiment in a line: NADPH-consumption TR assay on recombinant enzyme; Lineweaver-Burk kinetics; dilution assay (irreversible, time-dependent).

The target of test [2] is T2, trypanothione reductase (TcTR) (Trypanosoma cruzi, UniProt P28593).
T2 construct: gene TPR
T2 sequence (P28593 whole entry): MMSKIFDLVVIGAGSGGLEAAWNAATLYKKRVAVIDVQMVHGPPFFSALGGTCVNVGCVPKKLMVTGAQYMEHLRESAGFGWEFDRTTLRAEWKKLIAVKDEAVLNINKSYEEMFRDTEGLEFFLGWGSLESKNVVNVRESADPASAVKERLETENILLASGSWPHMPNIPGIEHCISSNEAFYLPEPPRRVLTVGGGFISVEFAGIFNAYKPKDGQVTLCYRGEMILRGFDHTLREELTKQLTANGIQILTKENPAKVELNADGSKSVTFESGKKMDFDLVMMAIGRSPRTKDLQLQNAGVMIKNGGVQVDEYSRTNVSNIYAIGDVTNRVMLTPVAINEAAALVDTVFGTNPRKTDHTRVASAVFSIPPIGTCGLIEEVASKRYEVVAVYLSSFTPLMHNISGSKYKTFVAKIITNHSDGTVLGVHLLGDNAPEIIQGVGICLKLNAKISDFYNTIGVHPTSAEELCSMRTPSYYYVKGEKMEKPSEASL
The experiment in a line: NADPH-consumption TR assay on recombinant enzyme, % inhibition at […] after […] min preincubation. Conditions: read-out: TcTR / % Inhibition at c = 100 μM Preincubation Time (min).

Test [3] addresses T1, trypanothione reductase (TbTR). The experiment in a line: NADPH-consumption TR assay on recombinant enzyme, % inhibition at […] after […] min preincubation; dilution assay. Conditions: read-out: TbTR / % Inhibition at c = 100 μM Preincubation Time (min).

T1 sequence (P39051 whole entry): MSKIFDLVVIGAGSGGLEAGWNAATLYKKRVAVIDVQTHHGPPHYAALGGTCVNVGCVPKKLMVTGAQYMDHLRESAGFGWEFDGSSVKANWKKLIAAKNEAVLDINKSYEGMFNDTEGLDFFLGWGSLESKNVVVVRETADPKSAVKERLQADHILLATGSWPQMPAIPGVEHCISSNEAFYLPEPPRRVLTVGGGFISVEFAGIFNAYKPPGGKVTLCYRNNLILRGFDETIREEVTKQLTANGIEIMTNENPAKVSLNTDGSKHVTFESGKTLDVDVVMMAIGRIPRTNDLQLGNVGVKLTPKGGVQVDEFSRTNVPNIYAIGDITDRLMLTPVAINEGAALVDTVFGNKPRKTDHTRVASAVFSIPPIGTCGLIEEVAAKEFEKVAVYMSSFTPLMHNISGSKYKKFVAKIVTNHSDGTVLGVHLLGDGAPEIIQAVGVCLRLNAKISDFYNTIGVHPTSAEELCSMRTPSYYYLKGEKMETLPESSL

Take `C=C1C[C@H]2OC(=O)C(=C)[C@@H]2[C@H](OC(=O)/C(C)=C/C)C[C@@]2(C)OC1=CC2=O` [compound 1, 4,15-iso-Atriplicolide tiglate]: the Ki in test [1] amounted to 128 ± 8 µM. Moreover, the inhibition at 100 µM in test [2] worked out at 89 ± 1%.

As to `C=C(C)C(=O)O[C@@H]1C[C@@]2(C)OC(=CC2=O)C(=C)C[C@H]2OC(=O)C(=C)[C@H]12` [compound 2, 4,15-iso-atriplicolide methacrylate], the inhibition at 100 µM in test [3] is 84%; in test [2], 41 ± 1%.

With `C=C1C[C@H]2OC(=O)C(=C)[C@@H]2[C@H](OC(=O)C(C)C)C[C@@]2(C)OC1=CC2=O` [compound 3, 4,15-iso-atriplicolide isobutyrate], the results for the inhibition at 100 µM in test [3] and in test [2] were 79% and 80%, respectively.
